Where two headings read alike, the source gives them in different places.
Tests used:
PI3K-alpha = PI3K-alpha (Homo sapiens, UniProt P42336); assay: Kinase inhibition assay, P-33 labelled ATP phosphate transfer, PI3K-alpha; type: biochemical; conditions: for inhibition at 0.3 µM: read-out: PI3K-alpha (% Inh at 300 nM)
Method: (§1) The assays determined the amount of radioactive phosphate transferred from P-33 labelled ATP to the substrate by the enzyme in the presence of various concentrations of the inhibitor test compounds. […] After this time period the cells were serum starved for 5 hours followed by application of the test compound. Test compound was added as a DMSO (dimethyl sulfoxide) solution such that the final DMSO concentration in the cell media was less than or equal to 0.2% by volume. After 30 minutes of exposure the growth factor stimulant, human IGF-1 (Pepro Tech, Inc., Rocky Hill, N.J., Cat.#100-11), was added in each well. […] A SpectraMax Plus spectrophotometric plate reader (Molecular Devices, Sunnydale, Calif.) was used to measure the optical density signal for pAKT at 450 nm (OD450 nm). The pAKT OD450 nm readings were normalized by total protein amount in the cell lysates determined by standard methods. Concentrations of test compounds required to inhibit IGF stimulated pAKT levels to 50% of maximum levels in PC3 cells (termed DM50 for decreased maximum 50%) were calculated by inputting the dose responses in the software package GraphPad Prism4 (GraphPad Software, Inc., San Diego, Calif.).

PC3 cells = assay: PC3 cell proliferation (WST, 72 hours); type: cell-based; conditions: Homo sapiens, read-out: PC3 cell proliferation(IC50 μM)
Method: The PC3 cell proliferation data in column 26 of Table 5 was obtained as follows: PC3 cells were obtained from the American Type Culture Collection (ATCC, Manassas, Va., Cat.#CRL-1435). Two thousand cells from the prostate cancer line PC3 were placed in 50 μL of complete RPMI 1640 media (Invitrogen, Carlsbad, Calif., Cat.#22400-105) with 10% fetal bovine serum, (Invitrogen, Carlsbad, Calif., Cat.#10438-026) into each well of 96-well cell culture plates in a hexaplicate sampling pattern. A 50 μL aliquot of test compound (prepared from stock test compounds in DMSO diluted into media) was added to the appropriate well such that the final concentrations of test compound were 200, 40, 8, 1.6, 0.32, 0.064, 0.0128, 0.00256, and 0 μM and the final DMSO concentration was less than or equal to 0.2% . The plates were incubated for 72 hours 37° C. in an atmosphere of 5% CO2. At the end of this time a 10 μL aliquot of WST solution (Roche Applied Science, Mannheim, Germany) was added into each of the wells. Cells were exposed to the WST solution for 4 hours. A SpectraMax Plus spectrophotometric plate reader (Molecular Devices, Sunnydale, Calif.) was then used to measure the optical density at 450 nm (OD450 nm). Sigmoidal curves were drawn for the dose responses and IC50 values were calculated using the software package GraphPad Prism4 (GraphPad Software, Inc., San Diego, Calif.).

PI3K-gamma = PI3K-gamma (Homo sapiens, UniProt P48736); assay: Kinase inhibition assay, P-33 labelled ATP phosphate transfer, PI3K-gamma; type: biochemical; conditions: for inhibition at 10 µM: read-out: PI3K-gamma(% Inh at 10 μM); for inhibition at 0.3 µM: read-out: PI3K-gamma(% Inh at 300 nM)
Chain of PI3K-gamma (P48736 whole entry, species assumed): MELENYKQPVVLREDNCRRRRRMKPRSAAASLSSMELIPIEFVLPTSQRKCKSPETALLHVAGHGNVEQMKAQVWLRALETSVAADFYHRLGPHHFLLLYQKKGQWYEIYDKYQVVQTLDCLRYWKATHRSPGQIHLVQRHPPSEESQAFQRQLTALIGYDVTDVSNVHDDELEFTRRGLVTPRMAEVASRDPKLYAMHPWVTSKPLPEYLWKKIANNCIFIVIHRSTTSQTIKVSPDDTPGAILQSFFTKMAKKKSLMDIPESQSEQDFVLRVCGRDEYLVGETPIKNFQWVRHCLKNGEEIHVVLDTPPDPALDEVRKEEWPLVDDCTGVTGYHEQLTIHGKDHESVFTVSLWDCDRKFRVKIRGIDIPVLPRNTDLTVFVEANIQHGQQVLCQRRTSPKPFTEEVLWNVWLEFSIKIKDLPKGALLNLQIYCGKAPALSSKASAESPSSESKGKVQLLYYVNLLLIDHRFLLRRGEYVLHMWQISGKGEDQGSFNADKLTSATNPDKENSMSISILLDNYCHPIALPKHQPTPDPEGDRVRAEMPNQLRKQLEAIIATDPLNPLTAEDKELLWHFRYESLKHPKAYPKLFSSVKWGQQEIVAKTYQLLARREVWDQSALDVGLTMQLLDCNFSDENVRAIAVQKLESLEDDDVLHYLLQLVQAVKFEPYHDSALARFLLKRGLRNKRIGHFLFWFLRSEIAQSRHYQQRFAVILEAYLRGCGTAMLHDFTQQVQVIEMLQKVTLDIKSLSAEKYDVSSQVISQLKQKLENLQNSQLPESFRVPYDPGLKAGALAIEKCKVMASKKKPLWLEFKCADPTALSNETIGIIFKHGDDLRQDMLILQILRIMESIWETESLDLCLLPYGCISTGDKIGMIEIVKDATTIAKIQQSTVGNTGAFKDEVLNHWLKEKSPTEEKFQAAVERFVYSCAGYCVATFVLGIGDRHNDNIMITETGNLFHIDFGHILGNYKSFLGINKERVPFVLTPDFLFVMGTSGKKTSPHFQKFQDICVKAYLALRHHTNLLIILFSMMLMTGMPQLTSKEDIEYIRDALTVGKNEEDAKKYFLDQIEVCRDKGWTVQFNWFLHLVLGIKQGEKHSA
Method: as §1

PIM-1 = PIM-1 (Homo sapiens, UniProt P11309); assay: Kinase inhibition assay, P-33 labelled ATP phosphate transfer, PIM-1; type: biochemical; conditions: for inhibition at 10 µM: read-out: PIM-1(% Inh at 10 μM); for inhibition at 0.3 µM: read-out: PIM-1(% Inh at 300 nM)
Chain of PIM-1 (P11309 whole entry, species assumed): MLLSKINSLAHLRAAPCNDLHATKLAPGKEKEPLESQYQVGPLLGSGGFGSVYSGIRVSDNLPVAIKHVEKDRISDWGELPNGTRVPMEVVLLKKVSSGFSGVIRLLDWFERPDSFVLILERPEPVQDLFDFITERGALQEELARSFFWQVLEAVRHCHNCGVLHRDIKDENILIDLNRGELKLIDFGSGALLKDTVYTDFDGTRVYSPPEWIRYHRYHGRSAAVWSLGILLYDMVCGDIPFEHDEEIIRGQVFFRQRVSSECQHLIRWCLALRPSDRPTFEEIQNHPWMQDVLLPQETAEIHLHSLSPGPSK
Method: as §1

PI3K-delta = PI3K-delta (Homo sapiens, UniProt O00329); assay: Kinase inhibition assay, P-33 labelled ATP phosphate transfer, PI3K-delta; type: biochemical; conditions: for inhibition at 10 µM: read-out: PI3K-delta(% Inh at 10 μM); for inhibition at 0.3 µM: read-out: PI3K-delta(% Inh at 300 nM)
Method: as §1

PLK-1 = PLK-1 (Homo sapiens, UniProt P53350); assay: Kinase inhibition assay, P-33 labelled ATP phosphate transfer, PLK-1; type: biochemical; conditions: for inhibition at 10 µM: read-out: PLK-1(% Inh at 10 μM); for inhibition at 0.3 µM: read-out: PLK-1(% Inh at 300 nM)
Chain of PLK-1 (P53350 whole entry, species assumed): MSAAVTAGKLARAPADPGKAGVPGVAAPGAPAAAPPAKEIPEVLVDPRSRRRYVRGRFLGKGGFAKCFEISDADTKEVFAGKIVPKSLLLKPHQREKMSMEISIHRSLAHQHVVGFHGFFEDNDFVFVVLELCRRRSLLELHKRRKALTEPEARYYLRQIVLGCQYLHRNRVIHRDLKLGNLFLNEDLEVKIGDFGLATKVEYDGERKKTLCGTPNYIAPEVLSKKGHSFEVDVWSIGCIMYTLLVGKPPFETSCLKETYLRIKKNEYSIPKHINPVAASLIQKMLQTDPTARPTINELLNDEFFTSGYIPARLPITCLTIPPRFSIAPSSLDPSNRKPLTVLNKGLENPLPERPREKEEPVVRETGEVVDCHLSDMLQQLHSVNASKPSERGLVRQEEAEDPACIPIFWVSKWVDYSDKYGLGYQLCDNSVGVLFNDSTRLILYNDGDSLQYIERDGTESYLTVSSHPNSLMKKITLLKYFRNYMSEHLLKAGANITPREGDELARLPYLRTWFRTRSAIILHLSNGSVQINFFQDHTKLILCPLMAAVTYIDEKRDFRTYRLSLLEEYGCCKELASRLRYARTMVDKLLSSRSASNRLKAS
Method: as §1

PI3K-beta = PI3K-beta (Homo sapiens, UniProt P42338); assay: Kinase inhibition assay, P-33 labelled ATP phosphate transfer, PI3K-beta; type: biochemical; conditions: for inhibition at 10 µM: read-out: PI3K-beta(% Inh at 10 μM); for inhibition at 0.3 µM: read-out: PI3K-beta(% Inh at 300 nM)
Chain of PI3K-beta (P42338 whole entry, species assumed): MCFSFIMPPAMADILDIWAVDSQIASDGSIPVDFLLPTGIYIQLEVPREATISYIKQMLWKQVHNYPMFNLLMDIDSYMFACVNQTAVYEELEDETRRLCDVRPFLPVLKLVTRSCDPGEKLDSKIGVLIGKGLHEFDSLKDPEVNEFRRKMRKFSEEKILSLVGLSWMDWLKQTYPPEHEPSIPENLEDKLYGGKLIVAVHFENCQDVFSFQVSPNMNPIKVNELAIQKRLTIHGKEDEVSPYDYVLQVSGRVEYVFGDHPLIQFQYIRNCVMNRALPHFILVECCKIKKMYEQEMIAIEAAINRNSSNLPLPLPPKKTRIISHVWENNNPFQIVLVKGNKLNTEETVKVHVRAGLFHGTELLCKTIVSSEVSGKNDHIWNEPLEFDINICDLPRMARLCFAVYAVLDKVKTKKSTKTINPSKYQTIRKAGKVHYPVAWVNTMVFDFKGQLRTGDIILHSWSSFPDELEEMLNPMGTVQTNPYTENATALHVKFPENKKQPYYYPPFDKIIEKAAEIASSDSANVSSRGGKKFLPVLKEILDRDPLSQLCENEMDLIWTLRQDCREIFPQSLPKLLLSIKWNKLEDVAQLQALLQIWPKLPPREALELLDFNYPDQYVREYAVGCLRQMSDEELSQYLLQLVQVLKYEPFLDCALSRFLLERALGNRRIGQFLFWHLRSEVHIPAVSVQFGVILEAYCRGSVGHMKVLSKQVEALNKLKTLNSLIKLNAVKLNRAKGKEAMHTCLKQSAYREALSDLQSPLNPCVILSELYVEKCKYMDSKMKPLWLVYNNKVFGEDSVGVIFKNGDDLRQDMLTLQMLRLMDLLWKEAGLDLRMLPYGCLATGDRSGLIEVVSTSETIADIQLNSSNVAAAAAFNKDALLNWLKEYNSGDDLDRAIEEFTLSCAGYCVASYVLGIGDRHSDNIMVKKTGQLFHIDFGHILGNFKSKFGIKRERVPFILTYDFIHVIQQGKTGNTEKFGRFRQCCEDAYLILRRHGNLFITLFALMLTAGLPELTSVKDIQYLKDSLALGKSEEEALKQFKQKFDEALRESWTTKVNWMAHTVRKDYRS
Chain of PI3K-beta (P27986 whole entry partner, species assumed): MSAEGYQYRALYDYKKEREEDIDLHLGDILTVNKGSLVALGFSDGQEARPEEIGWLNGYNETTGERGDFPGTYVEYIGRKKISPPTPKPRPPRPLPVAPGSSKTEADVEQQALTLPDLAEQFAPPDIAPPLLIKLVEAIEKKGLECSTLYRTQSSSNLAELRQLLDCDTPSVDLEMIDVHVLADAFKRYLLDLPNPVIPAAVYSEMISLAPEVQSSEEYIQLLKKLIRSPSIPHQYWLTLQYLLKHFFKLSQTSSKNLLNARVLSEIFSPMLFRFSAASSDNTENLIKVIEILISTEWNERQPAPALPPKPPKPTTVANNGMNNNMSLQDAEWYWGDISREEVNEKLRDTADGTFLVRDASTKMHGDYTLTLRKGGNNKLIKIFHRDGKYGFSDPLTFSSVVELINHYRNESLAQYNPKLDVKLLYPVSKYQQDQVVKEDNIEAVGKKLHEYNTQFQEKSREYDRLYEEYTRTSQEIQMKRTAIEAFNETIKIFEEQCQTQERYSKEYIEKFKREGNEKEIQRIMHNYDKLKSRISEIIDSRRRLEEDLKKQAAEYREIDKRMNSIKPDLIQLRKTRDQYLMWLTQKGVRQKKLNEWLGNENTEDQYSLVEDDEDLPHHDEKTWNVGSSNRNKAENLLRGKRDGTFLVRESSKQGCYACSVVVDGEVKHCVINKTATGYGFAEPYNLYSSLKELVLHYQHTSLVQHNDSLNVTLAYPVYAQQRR
Method: as §1

DNA-PK = DNA-PK (Homo sapiens, UniProt P78527); assay: Kinase inhibition assay, P-33 labelled ATP phosphate transfer, DNA-PK; type: biochemical; conditions: for inhibition at 0.3 µM: read-out: DNA-PK(% Inh at 300 nM)
Method: as §1

mTOR = mTOR (Homo sapiens, UniProt P42345); assay: Kinase inhibition assay, P-33 labelled ATP phosphate transfer, mTOR; type: biochemical; conditions: for inhibition at 10 µM: read-out: mTOR(% Inh at 10 μM); for inhibition at 0.3 µM: read-out: mTOR(% Inh at 300 nM)
Method: as §1

PI-3 kinases = conditions: cited from earlier work

Chain of PI3K-alpha (P42336 whole entry, species assumed): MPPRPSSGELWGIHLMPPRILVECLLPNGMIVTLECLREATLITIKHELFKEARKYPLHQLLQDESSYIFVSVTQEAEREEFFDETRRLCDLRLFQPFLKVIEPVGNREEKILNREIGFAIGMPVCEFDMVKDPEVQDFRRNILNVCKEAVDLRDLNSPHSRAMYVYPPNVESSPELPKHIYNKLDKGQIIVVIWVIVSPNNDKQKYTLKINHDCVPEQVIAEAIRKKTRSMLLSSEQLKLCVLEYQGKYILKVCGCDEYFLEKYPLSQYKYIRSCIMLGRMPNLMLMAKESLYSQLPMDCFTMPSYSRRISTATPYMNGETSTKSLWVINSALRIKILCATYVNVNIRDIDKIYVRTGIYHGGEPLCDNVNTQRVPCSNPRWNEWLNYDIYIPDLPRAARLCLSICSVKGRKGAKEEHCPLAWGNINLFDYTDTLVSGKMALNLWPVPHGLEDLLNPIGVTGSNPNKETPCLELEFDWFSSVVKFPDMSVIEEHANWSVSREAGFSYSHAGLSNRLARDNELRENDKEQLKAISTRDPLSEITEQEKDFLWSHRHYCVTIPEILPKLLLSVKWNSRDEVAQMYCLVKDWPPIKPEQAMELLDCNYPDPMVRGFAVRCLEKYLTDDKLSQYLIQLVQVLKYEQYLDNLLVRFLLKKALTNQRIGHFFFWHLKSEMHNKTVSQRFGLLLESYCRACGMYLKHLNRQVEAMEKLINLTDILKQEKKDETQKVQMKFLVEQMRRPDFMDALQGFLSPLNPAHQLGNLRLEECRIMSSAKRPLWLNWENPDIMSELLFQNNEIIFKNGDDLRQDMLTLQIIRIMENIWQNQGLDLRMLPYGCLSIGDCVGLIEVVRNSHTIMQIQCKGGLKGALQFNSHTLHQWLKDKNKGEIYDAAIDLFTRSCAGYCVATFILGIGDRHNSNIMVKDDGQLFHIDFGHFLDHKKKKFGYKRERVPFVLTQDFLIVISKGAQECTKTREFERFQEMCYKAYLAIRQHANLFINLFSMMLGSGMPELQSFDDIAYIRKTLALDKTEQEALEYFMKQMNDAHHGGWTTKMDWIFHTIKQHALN
Chain of PI3K-alpha (P27986 whole entry partner, species assumed): as the sequence (P27986 whole entry partner, species assumed) above

Compound | IC50 (PC3 cells; PC-3, PC3 cells, 72 hours, WST) [µM] | inhibition at 0.3 µM (PI3K-alpha) [%] | inhibition at 10 µM (PI3K-delta) [%] | inhibition at 0.3 µM (PI3K-delta) [%] | inhibition at 0.3 µM (PLK-1) [%] | inhibition at 0.3 µM (mTOR) [%] | other results
O=c1nc(N2CCOCC2)[nH]c2c(-c3ccccc3)csc12 [Compound 5, 2-morpholino-7-phenylthieno[3,2-d]pyrimidin-4(1H)-one] | 246 | – | – | – | – | – | inhibition at 10 µM (PI3K-alpha; read-out: PI3K-alpha(% Inh at 10 μM)): 12%
O=c1nc(N2CCOCC2)[nH]c2c1cnn2C1CCCCC1 [Compound 8, 1-cyclohexyl-6-morpholino-1H-pyrazolo[3,4-d]pyrimidin-4(7H)-one] | – | 2 | 18 | – | – | – | inhibition at 10 µM (PI3K-gamma): 4.8%; inhibition at 10 µM (PIM-1): 3.2%; inhibition at 10 µM (PLK-1): 3.4%; inhibition at 10 µM (PI3K-beta): 9.2%; IC50 (DNA-PK): 24 µM; inhibition at 10 µM (mTOR): 11%
O=c1nc(N2CCOCC2)oc2c(-c3ccc4c(c3)OCCO4)csc12 [Compound 12] | 4.7 | 53 | – | 72 | 0 | 0 | –
COc1cccc(-c2csc3c(=O)nc(N4CCOCC4)oc23)c1 [Compound 13] | – | 6.8 | – | 0 | 0 | 0 | IC50 (PC3 cells; PC-3, 72 h): 94 µM
COc1ccc(-c2csc3c(=O)nc(N4CCOCC4)oc23)cc1 [Compound 14] | – | 19 | – | 27 | 0 | 0 | –
CN(C)c1ccc(-c2csc3c(=O)nc(N4CCOCC4)oc23)cc1 [Compound 15] | 20 | 11 | – | 33 | 0 | 0 | –
O=C(NCCN1CCOCC1)c1cccc(-c2csc3c(=O)nc(N4CCOCC4)oc23)c1 [Compound 16] | 31 | 16 | – | 17 | 0 | 0 | –
Nc1ccc(-c2csc3c(=O)nc(N4CCOCC4)oc23)cc1 [Compound 17] | 108 | 22 | – | 32 | 0 | 0 | –
O=c1nc(N2CCOCC2)oc2c(-c3cccnc3)csc12 [Compound 18] | – | 0 | – | 0 | 0 | 0 | –
O=c1nc(N2CCOCC2)oc2c(-c3ccoc3)csc12 [Compound 19] | – | 15 | – | 0 | 0 | 3 | –
COc1ccc(C#Cc2csc3c(=O)nc(N4CCOCC4)oc23)cc1 [Compound 20] | – | 0 | – | 0 | 0 | 0 | –
CCOC(=O)Cn1ncc2c(=O)nc(N3CCOCC3)[nH]c21 [Compound 24] | 1.4 | 6.6 | 7.2 | – | – | – | inhibition at 10 µM (PI3K-gamma): 14%; inhibition at 10 µM (PIM-1): 0.9%; inhibition at 10 µM (PLK-1): 7.5%; inhibition at 10 µM (PI3K-beta): 22%; IC50 (DNA-PK): 24 µM; inhibition at 10 µM (mTOR): 0%
O=c1nc(N2CCOCC2)[nH]c2c1cnn2-c1ccccn1 [Compound 25] | – | 6.6 | 10 | – | – | – | inhibition at 10 µM (PI3K-gamma): 35%; inhibition at 10 µM (PIM-1): 9.4%; inhibition at 10 µM (PLK-1): 2.6%; inhibition at 10 µM (PI3K-beta): 4.7%; IC50 (DNA-PK): 24 µM; inhibition at 10 µM (mTOR): 0%
O=c1nc(N2CCOCC2)[nH]c2c1cnn2CCO [Compound 26] | – | 9 | 26 | – | – | – | inhibition at 10 µM (PI3K-gamma): 0.6%; inhibition at 10 µM (PIM-1): 1.5%; inhibition at 10 µM (PLK-1): 3.3%; inhibition at 10 µM (PI3K-beta): 14%; IC50 (DNA-PK): 24 µM; inhibition at 10 µM (mTOR): 0.5%
O=c1cc(N2CCOCC2)oc2c(-c3ccccc3)cccc12 [LY294002, 2-(4-morpholinyl)-8-phenyl-4H-1-benzopyran-4-one] | – | – | – | – | – | – | IC50 (PI-3 kinases; C. J. Vlahos et al. 1994): 1.4 µM
O=c1cc(N2CCNCC2)oc2c(-c3ccccc3)cccc12 [LY303511] | – | – | – | – | – | – | PI3K inhibition activity (PI-3 kinases; C. Vlahos et al. 1994): lose all PI3K inhibition activity

More lines, main results first:

IC50 (PC3 cells; PC-3, PC3 cells, 72 hours, WST) [µM] | inhibition at 0.3 µM (PI3K-alpha) [%] | inhibition at 10 µM (PI3K-delta) [%] | inhibition at 0.3 µM (PI3K-delta) [%] | inhibition at 0.3 µM (PLK-1) [%] | inhibition at 0.3 µM (mTOR) [%] | Compound | other results
– | 2.6 | – | 32 | 0 | 0 | Cc1nc2c(=O)nc(N3CCOCC3)[nH]c2n1-c1ccccc1 [Compound 11, 8-methyl-2-morpholino-9-phenyl-3H-purin-6(9H)-one] | inhibition at 0.3 µM (PI3K-gamma): 0%; inhibition at 0.3 µM (PIM-1): 0%; inhibition at 0.3 µM (PI3K-beta): 0%; inhibition at 0.3 µM (DNA-PK): 0%
263 | 14 | 20 | – | – | 42 | O=c1nc(N2CCOCC2)[nH]c2c1cnn2-c1ccccc1 [Compound 22] | inhibition at 10 µM (PI3K-gamma): 8%; inhibition at 10 µM (PIM-1): 45%
– | 6.6 | 0 | – | – | – | O=c1nc(N2CCOCC2)[nH]c2c1cnn2Cc1ccccc1 [Compound 23] | inhibition at 10 µM (PI3K-gamma): 15%; inhibition at 10 µM (PIM-1): 2.1%; inhibition at 10 µM (PLK-1): 4.9%; inhibition at 10 µM (PI3K-beta): 14%; IC50 (DNA-PK): 24 µM; inhibition at 10 µM (mTOR): 0%
149 | 30 | 50 | – | – | – | O=c1nc(N2CCOCC2)[nH]c2c1cnn2-c1ccc2c(c1)OCCO2 [Compound 27] | inhibition at 10 µM (PI3K-gamma): 48%; IC50 (PIM-1): 1 µM; inhibition at 10 µM (PI3K-beta): 12%; IC50 (DNA-PK): 24 µM; inhibition at 10 µM (mTOR): 4.4%
– | 6.9 | 0 | – | – | – | O=c1nc(N2CCOCC2)[nH]c2c1cnn2-c1ccc(Cl)cc1 [Compound 28] | –
– | 7 | – | 0 | 0 | 0 | Cc1nc2c(=O)nc(N3CCOCC3)[nH]c2n1Cc1ccccc1 [Compound 29] | inhibition at 0.3 µM (PI3K-gamma): 0%; inhibition at 0.3 µM (PIM-1): 0%; inhibition at 0.3 µM (PI3K-beta): 0%; inhibition at 0.3 µM (DNA-PK): 0%
– | 4.7 | – | 32 | 0 | 0 | Cc1nc2c(=O)nc(N3CCOCC3)[nH]c2n1-c1ccc(F)cc1 [Compound 30] | inhibition at 0.3 µM (PI3K-gamma): 3%; inhibition at 0.3 µM (PIM-1): 0%; inhibition at 0.3 µM (PI3K-beta): 14%; inhibition at 0.3 µM (DNA-PK): 0%
– | 7.5 | – | 8.7 | 0 | 0 | Cc1nc2c(=O)nc(N3CCOCC3)[nH]c2n1-c1ccc2[nH]ccc2c1 [Compound 31] | inhibition at 0.3 µM (PI3K-gamma): 7.5%; inhibition at 0.3 µM (PIM-1): 0%; inhibition at 0.3 µM (PI3K-beta): 2.5%; inhibition at 0.3 µM (DNA-PK): 0%
– | 0 | – | 15 | 0 | 0 | Cc1ccc(-n2c(C)nc3c(=O)nc(N4CCOCC4)[nH]c32)cc1 [Compound 32] | inhibition at 0.3 µM (PI3K-gamma): 1%; inhibition at 0.3 µM (PIM-1): 0%; inhibition at 0.3 µM (PI3K-beta): 0%; inhibition at 0.3 µM (DNA-PK): 0%

— patent US10174032B2, “Heterocyclic compound classes for signaling modulation” (SignalRx Pharmaceuticals, Inc., priority 2014, dated 2019)
